Inhibition data for three molecules are collected here from ChEMBL document CHEMBL2417377, “Hit-to-lead optimization and kinase selectivity of imidazo[1,2-a]quinoxalin-4-amine derived JNK1 inhibitors” (Bioorg Med Chem Lett, 2013).

Bounds are passed on as bounds.

The target of assay [1] is Serine/threonine-protein kinase PRP4 homolog (Homo sapiens) (UniProt Q13523). Put plainly: Inhibition of PRP4 in human PC3 cell lysates at 10 uM using desthiobiotin-tagged ATP probe AX9989 followed by trypsinization by LC/MS analysis. The following applies: PC-3.
Serine/threonine-protein kinase PRP4 homolog (Homo sapiens), sequence (Q13523 whole entry): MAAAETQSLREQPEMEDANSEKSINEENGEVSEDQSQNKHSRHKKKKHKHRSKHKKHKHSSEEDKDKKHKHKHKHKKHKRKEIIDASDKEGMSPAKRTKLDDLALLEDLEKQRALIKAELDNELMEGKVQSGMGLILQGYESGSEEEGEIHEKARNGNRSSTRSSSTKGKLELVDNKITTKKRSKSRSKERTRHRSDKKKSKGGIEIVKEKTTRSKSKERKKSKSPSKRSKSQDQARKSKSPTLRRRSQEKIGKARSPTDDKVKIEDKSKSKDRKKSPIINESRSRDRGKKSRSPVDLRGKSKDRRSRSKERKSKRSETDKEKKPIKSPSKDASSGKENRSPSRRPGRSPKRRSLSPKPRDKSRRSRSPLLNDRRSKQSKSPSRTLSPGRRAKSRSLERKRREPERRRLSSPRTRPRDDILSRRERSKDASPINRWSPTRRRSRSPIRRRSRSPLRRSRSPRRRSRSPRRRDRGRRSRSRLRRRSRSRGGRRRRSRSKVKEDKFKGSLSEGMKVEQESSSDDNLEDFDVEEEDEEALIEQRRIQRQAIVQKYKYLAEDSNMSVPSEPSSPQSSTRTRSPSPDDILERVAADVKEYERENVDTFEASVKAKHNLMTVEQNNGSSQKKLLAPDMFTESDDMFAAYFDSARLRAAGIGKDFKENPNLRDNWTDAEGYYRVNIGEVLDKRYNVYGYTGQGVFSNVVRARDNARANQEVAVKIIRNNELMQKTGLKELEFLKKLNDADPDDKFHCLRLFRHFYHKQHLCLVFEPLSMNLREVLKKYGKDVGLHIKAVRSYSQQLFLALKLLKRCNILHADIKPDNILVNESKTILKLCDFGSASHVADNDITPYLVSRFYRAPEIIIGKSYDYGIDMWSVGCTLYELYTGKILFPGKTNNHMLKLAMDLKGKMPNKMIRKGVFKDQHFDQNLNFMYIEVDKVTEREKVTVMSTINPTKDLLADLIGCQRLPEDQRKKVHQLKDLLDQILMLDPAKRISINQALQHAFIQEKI
Assay [2] concerns the target T1, Ephrin type-A receptor 1 (Homo sapiens) (UniProt P21709).
T1 sequence (whole entry): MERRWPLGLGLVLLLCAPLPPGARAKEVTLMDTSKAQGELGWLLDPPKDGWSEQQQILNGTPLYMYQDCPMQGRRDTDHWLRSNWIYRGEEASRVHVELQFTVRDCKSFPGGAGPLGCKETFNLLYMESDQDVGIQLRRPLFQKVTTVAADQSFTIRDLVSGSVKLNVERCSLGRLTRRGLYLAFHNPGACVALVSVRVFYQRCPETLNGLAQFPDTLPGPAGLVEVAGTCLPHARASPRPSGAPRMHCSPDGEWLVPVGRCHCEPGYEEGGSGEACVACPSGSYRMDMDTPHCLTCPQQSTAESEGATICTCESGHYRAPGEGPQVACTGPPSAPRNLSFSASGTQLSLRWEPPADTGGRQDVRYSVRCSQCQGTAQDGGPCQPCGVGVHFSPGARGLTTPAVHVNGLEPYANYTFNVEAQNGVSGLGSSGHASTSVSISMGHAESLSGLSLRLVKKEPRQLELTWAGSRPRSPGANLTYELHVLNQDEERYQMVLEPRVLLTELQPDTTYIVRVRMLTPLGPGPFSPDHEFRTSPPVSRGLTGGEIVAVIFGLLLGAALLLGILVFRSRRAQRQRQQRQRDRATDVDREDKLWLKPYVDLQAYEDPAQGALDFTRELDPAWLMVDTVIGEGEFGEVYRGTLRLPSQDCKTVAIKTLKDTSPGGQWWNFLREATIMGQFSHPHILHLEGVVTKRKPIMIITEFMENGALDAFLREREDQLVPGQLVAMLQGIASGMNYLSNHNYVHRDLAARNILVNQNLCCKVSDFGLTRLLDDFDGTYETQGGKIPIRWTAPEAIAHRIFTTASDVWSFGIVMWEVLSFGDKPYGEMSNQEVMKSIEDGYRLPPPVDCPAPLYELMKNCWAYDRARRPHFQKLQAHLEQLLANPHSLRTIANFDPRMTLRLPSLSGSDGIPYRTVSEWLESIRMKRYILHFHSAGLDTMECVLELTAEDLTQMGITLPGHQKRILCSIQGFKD
Put plainly: Inhibition of EphA1 in human PC3 cell lysates at 10 uM using desthiobiotin-tagged ATP probe AX9989 followed by trypsinization by LC/MS analysis. The conditions noted are these: PC-3.

Assay [3] concerns the target Tyrosine-protein kinase Fer (Homo sapiens) (UniProt P16591). Kind of assay: Inhibition of FER in human PC3 cell lysates at 10 uM using desthiobiotin-tagged ATP probe AX9989 followed by trypsinization by LC/MS analysis. The following applies: PC-3.
For assay [4], the target named is T2, Dual specificity mitogen-activated protein kinase kinase 3 (Homo sapiens) (UniProt P46734).
T2 sequence (whole entry): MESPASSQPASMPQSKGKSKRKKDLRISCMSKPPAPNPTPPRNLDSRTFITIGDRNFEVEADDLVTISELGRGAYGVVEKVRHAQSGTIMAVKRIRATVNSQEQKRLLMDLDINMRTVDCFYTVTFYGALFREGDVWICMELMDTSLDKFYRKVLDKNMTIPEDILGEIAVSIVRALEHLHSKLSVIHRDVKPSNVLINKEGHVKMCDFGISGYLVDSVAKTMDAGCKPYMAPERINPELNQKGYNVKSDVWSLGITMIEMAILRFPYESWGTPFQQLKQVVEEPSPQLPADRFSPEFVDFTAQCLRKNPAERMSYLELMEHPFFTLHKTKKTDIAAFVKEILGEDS
Kind of assay: Inhibition of MAP2K3 in human PC3 cell lysates at 10 uM using desthiobiotin-tagged ATP probe AX9989 followed by trypsinization by LC/MS analysis. The following applies: PC-3.

Assay [5] concerns the target Serine/threonine-protein kinase tousled-like 2 (Homo sapiens) (UniProt Q86UE8). Put plainly: Inhibition of TLK2 in human PC3 cell lysates at 10 uM using desthiobiotin-tagged ATP probe AX9989 followed by trypsinization by LC/MS analysis. The conditions noted are these: PC-3.
Assay [6] has as its target Cyclin-dependent kinase 10 (Homo sapiens) (UniProt Q15131). Put plainly: Inhibition of CDK10 in human PC3 cell lysates at 10 uM using desthiobiotin-tagged ATP probe AX9989 followed by trypsinization by LC/MS analysis. The conditions noted are these: PC-3.
In assay [7] the target is Mitogen-activated protein kinase 3 (Homo sapiens) (UniProt P27361). Put plainly: Inhibition of Erk1 in human PC3 cell lysates at 10 uM using desthiobiotin-tagged ATP probe AX9989 followed by trypsinization by LC/MS analysis. The conditions noted are these: PC-3.
For assay [8], the target named is Dual specificity mitogen-activated protein kinase kinase 2 (Homo sapiens) (UniProt P36507). Put plainly: Inhibition of MAP2K2 in human PC3 cell lysates at 10 uM using desthiobiotin-tagged ATP probe AX9989 followed by trypsinization by LC/MS analysis. The following applies: PC-3.
Dual specificity mitogen-activated protein kinase kinase 2 (Homo sapiens), sequence (P36507 whole entry): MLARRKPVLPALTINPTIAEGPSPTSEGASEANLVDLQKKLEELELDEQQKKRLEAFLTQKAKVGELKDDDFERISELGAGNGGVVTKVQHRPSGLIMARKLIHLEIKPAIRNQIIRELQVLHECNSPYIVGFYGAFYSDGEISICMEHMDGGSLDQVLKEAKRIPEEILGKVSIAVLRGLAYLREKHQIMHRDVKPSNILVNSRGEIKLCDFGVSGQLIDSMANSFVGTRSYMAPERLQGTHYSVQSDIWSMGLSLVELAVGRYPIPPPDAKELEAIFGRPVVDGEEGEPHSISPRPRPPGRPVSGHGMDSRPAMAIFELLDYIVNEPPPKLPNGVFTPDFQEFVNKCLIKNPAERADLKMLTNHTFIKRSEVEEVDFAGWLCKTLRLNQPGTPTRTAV
Assay [9] addresses Mitogen-activated protein kinase kinase kinase 20 (Homo sapiens) (UniProt Q9NYL2). Kind of assay: Inhibition of ZAK in human PC3 cell lysates at 10 uM using desthiobiotin-tagged ATP probe AX9989 followed by trypsinization by LC/MS analysis. The conditions noted are these: PC-3.
The nature of assay [10]: Inhibition of PITSLRE in human PC3 cell lysates at 10 uM using desthiobiotin-tagged ATP probe AX9989 followed by trypsinization by LC/MS analysis. The assay is classed as cell-free. The following applies: PC-3.
Assay [11] addresses Protein kinase C alpha type (Homo sapiens) (UniProt P17252). Kind of assay: Inhibition of PKCalpha in human PC3 cell lysates at 10 uM using desthiobiotin-tagged ATP probe AX9989 followed by trypsinization by LC/MS analysis. The conditions noted are these: PC-3.
Assay [12] concerns the target T3, Scaffold protein ILK (Homo sapiens) (UniProt Q13418).
T3 sequence (whole entry): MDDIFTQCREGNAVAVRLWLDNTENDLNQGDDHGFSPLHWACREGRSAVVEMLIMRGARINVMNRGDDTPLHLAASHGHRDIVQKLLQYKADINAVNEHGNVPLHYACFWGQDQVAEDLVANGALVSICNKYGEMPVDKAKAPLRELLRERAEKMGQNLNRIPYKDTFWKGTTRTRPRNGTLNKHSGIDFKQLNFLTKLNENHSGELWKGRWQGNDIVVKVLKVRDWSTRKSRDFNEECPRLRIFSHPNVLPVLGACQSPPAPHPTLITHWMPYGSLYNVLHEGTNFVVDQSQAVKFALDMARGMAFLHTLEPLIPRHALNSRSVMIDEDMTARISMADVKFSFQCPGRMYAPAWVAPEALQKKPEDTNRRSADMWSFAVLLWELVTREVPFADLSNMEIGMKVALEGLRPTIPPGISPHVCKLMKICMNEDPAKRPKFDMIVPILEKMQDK
Kind of assay: Inhibition of ILK in human PC3 cell lysates at 10 uM using desthiobiotin-tagged ATP probe AX9989 followed by trypsinization by LC/MS analysis. The following applies: PC-3.

The next assay deals with PC-3. Kind of assay: Inhibition of ANPbeta in human PC3 cell lysates at 10 uM using desthiobiotin-tagged ATP probe AX9989 followed by trypsinization by LC/MS analysis. The class given is cell-free.

Cyclin-dependent kinase 10 (Homo sapiens), sequence (Q15131 whole entry): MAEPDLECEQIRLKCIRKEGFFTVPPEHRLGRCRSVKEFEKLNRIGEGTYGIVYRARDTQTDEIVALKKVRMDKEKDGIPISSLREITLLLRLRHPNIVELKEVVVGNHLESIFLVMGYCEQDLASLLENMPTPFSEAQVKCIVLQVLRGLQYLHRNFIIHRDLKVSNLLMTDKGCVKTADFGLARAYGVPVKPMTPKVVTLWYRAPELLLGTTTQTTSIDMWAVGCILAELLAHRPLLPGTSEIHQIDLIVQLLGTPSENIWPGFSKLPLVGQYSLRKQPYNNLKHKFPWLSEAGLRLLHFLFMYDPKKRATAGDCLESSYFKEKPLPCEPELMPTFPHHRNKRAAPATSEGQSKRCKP
Tyrosine-protein kinase Fer (Homo sapiens), sequence (P16591 whole entry, looked up): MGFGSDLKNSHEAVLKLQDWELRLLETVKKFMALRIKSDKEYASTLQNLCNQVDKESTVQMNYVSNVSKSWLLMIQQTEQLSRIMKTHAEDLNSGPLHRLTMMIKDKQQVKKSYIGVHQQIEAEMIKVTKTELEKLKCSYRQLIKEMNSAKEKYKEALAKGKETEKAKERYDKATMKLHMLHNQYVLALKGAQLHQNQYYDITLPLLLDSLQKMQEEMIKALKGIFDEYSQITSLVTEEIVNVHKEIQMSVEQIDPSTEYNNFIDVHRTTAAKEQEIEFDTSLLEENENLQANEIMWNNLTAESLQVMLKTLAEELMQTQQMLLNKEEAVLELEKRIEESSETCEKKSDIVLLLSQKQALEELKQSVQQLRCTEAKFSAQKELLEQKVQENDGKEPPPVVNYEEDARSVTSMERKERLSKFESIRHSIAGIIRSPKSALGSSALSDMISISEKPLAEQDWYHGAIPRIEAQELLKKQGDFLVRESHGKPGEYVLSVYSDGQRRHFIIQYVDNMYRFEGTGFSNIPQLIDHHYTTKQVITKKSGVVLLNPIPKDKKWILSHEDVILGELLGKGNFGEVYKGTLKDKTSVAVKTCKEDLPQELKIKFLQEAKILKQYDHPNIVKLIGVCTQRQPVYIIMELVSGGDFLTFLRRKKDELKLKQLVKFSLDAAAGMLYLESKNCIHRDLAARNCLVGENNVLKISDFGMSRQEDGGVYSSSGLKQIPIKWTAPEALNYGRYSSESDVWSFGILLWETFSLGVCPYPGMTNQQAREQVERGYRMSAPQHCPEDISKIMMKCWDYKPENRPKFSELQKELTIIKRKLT
Serine/threonine-protein kinase tousled-like 2 (Homo sapiens), sequence (Q86UE8 whole entry, looked up): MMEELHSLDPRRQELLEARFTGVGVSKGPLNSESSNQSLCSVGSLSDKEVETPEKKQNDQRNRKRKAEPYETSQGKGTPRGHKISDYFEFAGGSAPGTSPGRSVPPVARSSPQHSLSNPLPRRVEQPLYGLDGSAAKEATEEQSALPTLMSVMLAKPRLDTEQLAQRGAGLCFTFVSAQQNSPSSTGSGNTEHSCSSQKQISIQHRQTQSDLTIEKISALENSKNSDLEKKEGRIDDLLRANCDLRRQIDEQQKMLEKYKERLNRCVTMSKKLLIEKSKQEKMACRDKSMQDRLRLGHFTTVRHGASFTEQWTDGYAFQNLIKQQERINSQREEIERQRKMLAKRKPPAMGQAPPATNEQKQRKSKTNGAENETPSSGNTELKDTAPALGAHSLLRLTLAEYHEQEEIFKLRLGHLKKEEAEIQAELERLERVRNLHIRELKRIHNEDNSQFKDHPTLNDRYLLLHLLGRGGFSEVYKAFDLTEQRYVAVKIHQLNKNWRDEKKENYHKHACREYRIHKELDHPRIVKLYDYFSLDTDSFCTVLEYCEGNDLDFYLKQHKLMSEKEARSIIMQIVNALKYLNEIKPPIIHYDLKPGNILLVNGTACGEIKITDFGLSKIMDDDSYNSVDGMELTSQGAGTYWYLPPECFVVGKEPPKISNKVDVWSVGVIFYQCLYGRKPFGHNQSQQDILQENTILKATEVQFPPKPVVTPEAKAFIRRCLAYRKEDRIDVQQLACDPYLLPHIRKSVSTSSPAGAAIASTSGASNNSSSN
Mitogen-activated protein kinase kinase kinase 20 (Homo sapiens), sequence (Q9NYL2 2-800 limits assumed): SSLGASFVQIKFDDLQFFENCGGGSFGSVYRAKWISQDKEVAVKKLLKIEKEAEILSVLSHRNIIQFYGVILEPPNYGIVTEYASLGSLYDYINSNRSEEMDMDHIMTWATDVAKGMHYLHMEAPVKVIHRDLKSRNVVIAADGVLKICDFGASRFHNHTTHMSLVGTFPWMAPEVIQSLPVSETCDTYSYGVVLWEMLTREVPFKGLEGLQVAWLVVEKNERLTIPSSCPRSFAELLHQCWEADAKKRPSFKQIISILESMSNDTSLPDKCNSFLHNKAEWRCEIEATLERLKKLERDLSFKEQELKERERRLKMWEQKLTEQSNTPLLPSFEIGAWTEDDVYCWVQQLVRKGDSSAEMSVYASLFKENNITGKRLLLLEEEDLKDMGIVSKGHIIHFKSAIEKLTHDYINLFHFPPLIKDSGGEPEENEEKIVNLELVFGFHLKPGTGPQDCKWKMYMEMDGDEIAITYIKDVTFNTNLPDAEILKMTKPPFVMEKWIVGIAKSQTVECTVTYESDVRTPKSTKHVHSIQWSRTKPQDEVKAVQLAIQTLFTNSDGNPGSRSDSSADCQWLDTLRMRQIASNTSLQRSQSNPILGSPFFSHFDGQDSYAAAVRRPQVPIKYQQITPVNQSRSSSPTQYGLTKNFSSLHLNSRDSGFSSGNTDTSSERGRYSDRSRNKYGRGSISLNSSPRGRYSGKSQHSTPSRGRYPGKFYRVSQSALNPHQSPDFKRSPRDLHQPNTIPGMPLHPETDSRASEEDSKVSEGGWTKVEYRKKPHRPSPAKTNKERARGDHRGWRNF

With `CC(C)(NC(=O)c1ccc2nc(N[C@H]3CC[C@H](O)CC3)c3nccn3c2c1)c1ccccc1`, the inhibition in [1], in assay [2], in [3], in [4], in assay [5] and in [6] was less than 35% throughout. For the same molecule, the inhibition in assay [7], in [8], in assay [9], in assay [10], in assay [11] and in assay [12] was less than 35% each time. In the assay with PC-3, this molecule displayed an inhibition of less than 35%.

For the molecule `O=C(NC1(c2ccccc2)CCC1)c1ccc2nc(N[C@H]3CC[C@H](O)CC3)c3nccn3c2c1`, the inhibition in assay [1] is less than 35%; in assay [2], less than 35%; in assay [3] it was less than 35%; in assay [4], less than 35%; in assay [5], less than 35%; in [6], 59.1%. In addition, the inhibition in assay [7], in assay [8], in [9], in assay [10], in [11] and in assay [12] was less than 35% in each case. Besides, the inhibition in the assay with PC-3 is less than 35%.

With `O=C(NC1(Cc2ccc(F)cc2)CC1)c1ccc2nc(N[C@H]3CC[C@H](O)CC3)c3nccn3c2c1`, the inhibition in assay [1], in assay [2], in assay [3], in assay [4], in assay [5] and in assay [6] was less than 35% in each case. The inhibition in [7], in assay [8], in assay [9], in assay [10], in [11] and in assay [12] was less than 35% throughout. The molecule also yielded an inhibition in the assay on PC-3 of less than 35%.

One may read the inhibition as the drop in the measured response relative to a control, in per cent. A higher inhibition goes with strong suppression.
